Measurements from article PMC6158189, “A pharmacological probe identifies cystathionine β-synthase as a new negative regulator for ferroptosis” (Cell Death & Disease, 2018).

Columns and labels:
HepG2 cells [1] = experiment: cell viability (CellTiter 96 Aqueous One); format: cell-based, human; details: 20 μM, 48 h or 72 h
Description: Fig. 4 CH004 arrests the cell cycle at the S phase. a CH004 reduces the cell viability of HEK293T and HepG2 cells. HEK293T or HepG2 cells were treated with indicated concentrations of CH004 for 24 h before the cell number was analyzed using the CellTiter96® Aqueous One Solution Cell Proliferation Assay (Promega, Materials and Methods). The means at each concentration of one representative experiment are shown as percentages of DMSO (control, 100%). Means ± SDs (n = 3). b Overexpression of hCBS or knock-down of hCBS counteracts the growth inhibition exerted by CH004 in HEK293T cells. Indicated HEK293T stable cell lines were treated with the CH004 or DMSO for 24 h. Then, the cell viability was quantified with the CellTiter 96® Aqueous One Solution Cell Proliferation Assay under the standard protocol (Promega). The means at each concentration are shown as percentages of their respective DMSO controls (100%). Means ± SDs (n = 3). The efficacy for CBS overexpression and knock-down in HEK293T cells was determined by Western blotting using an anti-CBS antibody (3E1, 1:2000; Abnova). c CH004 induces cell death in HEK293T and HepG2 cells. […] The means of percentages of dead cells (DMSO, 100%) from three independent samples are shown in d. Means ± SDs (n = 3). e, f Pharmacological inhibition or genetic knock-down of hCBS in HEK293T cells arrests the cell cycle at S phase. HEK293T cells were incubated with indicated compounds for 12 h, and the DNA content was quantified with propidium iodide to analyze the cell cycle distribution by flow cytometry (e). The cell cycle distributions for HEK293T-shNT and HEK293T-shCBS cells were accordingly analyzed and are shown in f. One representative diagram is shown for each condition. The mean percentages of various cell phases from three independent samples are shown in the respective right panels. Means ± SDs (n = 3). […]
Figure S15. […] Indicated HEK293T stable cell lines were treated with CH004 at a concentration of 10 µM for 24 h, and the cell viability was then measured using the CellTiter96® Aqueous One Solution Cell Proliferation Assay (Promega). […]

[2] = test system: mouse embryonic fibroblasts (MEF); experiment: lipid ROS (BODIPY 581/591 C11, flow cytometry); format: cell-based; details: low micromolar concentrations, 24 h
Description: (§1) To detect lipid peroxidation upon treatment with CH004, HepG2 cells or mouse embryonic fibroblasts (MEF) were seeded in 12-well plates with ~ 1.8 × 10^5 cells per well for 24 h. After treatment with the inhibitor for another 24 h, cells were stained with BODIPY® 581/591 C11 (Invitrogen) for 1 h at a final concentration of 2 μM at 37 °C[57]. The cells were then resuspended in an appropriate amount of PBS after being washed once with PBS. Lipid peroxidation, i.e., lipid ROS, was analyzed by detection of the fluorescence using an LSR Fortessa flow cytometer. The data were recorded at 530/30 nm (green fluorescent) and 670/30 nm (red fluorescent) wavelengths after excitation at 488 nm. A minimum of 20000 events was used for the analysis. All the experiments were independently repeated twice in triplicate.
(§2) Figure S15. The mode of actions for CH004 in cells. […] Indicated HEK293T stable cell lines were treated with CH004 at a concentration of 10 µM for 24 h, and the cell viability was then measured using the CellTiter96® Aqueous One Solution Cell Proliferation Assay (Promega). Means ± SDs (n=3). (B-C) CH004 or erastin triggers ferroptosis in mouse embryonic fibroblasts (MEF). […] The cell viability was accordingly quantified using the CellTiter96® Aqueous One Solution Cell Proliferation Assay (Promega) and the results were shown as percentages of DMSO (control, 100%). […]

HepG2 cells [3] = experiment: lipid ROS (BODIPY 581/591 C11, flow cytometry); format: cell-based, human; details: 24 h; for accumulation of lipid ROS in HepG2 cells: up to 15 μM
Description: as §1
Figure S15. The mode of actions for CH004 in cells. […] Indicated HEK293T stable cell lines were treated with CH004 at a concentration of 10 µM for 24 h, and the cell viability was then measured using the CellTiter96® Aqueous One Solution Cell Proliferation Assay (Promega). Means ± SDs (n=3). (B-C) CH004 or erastin triggers ferroptosis in mouse embryonic fibroblasts (MEF). WT MEF cells were treated with CH004 or erastin at indicated concentrations in the presence or the absence of 500 µM DFO for 24 h before measuring the lipid ROS with 2 μM BODIPY® 581/591 C11 (Materials and methods). […] Erastin at micromolar concentrations were incubated with HepG2 cells for 24 h before measuring the lipid ROS (see above and Materials and methods). […] Means ± SDs (n=3). […] CH004 or erastin at a concentration of 20 µM was incubated with HepG2 cells for 48 h or 72 h in the presence or the absence of 100 µM DFO. The cell viability was accordingly quantified using the CellTiter96® Aqueous One Solution Cell Proliferation Assay (Promega) and the results were shown as percentages of DMSO (control, 100%). Means ± SDs (n=3). All the experiments were independently repeated at least twice and one representative result is present. Table S1 The inhibitory effects of CH004 on purified hCBS, hCSE and hDDC.

HepG2 cells [4] = experiment: rescue of CH004-induced loss of viability by cell death inhibitors (CellTiter 96); format: cell-based, human; details: 100 µM DFO, 48 h or 72 h
Description: To measure cell viability and cytotoxicity, HepG2, HEK293T, Huh-7, H22, Panc-28, HCT116 and MDA-MB-231 cells were seeded at a density of ~ 2 × 10^4 cells per well in 96-well plates (Coring, NY, USA) for one day, followed by incubation with DMSO or various concentrations of tested compound for indicated times. Then, the cells were collected to measure the cell viability using the CellTiter 96® Aqueous One Solution Cell Proliferation Assay (Promega, G3581) according to the standard protocols.
as §2, with “(MEF). WT MEF cells were treated with CH004 or erastin at indicated concentrations in the presence or the absence of 500 µM DFO for 24 h before measuring the lipid ROS with 2 μM BODIPY® 581/591 C11 (Materials and methods).” for “(MEF).”

CCOc1ccccc1-n1c(C(C)N2CCN(C(=O)COc3ccc(Cl)cc3)CC2)nc2ccccc2c1=O (stereo not drawn) [erastin, reference compound]
cell death in HepG2 cells (HepG2 cells [1]): did not trigger
induction of ferroptosis (lipid ROS) in MEF [2]: ~ 3 fold
accumulation of lipid ROS in HepG2 cells (HepG2 cells [3]): did not trigger
accumulation of lipid ROS in HepG2 cells (HepG2 cells [3]; listed as Erastin): does not induce ferroptosis

CC(=O)N(O)CCCCCNC(=O)CCC(=O)N(O)CCCCCNC(=O)CCC(=O)N(O)CCCCCN [deferoxamine]
rescue of cell death caused by 20 µM CH004 (HepG2 cells [4]): partially rescues
reduction of lipid ROS caused by 10 μM CH004 (HepG2 cells [3]; 500 μM deferoxamine, HepG2): almost completely reduced
